Oligonucleotides are written 5' to 3', each unit as a sugar letter and its base; * is a phosphorothioate linkage, no mark a phosphodiester; rarer units and linkages stand in square brackets, end groups in braces. Plain capitals give the bases only. e = 2'-O-(2-methoxyethyl) (MOE); [5mC] = 5-methylcytosine; d = 2'-deoxy (DNA)

These results are taken from US8258114B2, “Modulation of glucose-6-phosphatase translocase expression” (Isis Pharmaceuticals, Inc., priority 2004, dated 2012).

One series has as its system mouse glucose-6-phosphatase translocase mRNA. Description: Antisense inhibition of mouse glucose-6-phosphatase translocase mRNA in primary mouse hepatocytes, 150 nM, LIPOFECTIN (Table 22). It counts as cell-based. The conditions noted are these: real-time PCR. As to the method:
(§1) Primary mouse hepatocytes were prepared from CD-1 mice purchased from Charles River Labs. Primary mouse hepatocytes were routinely cultured in Hepatocyte Attachment Media supplemented with 10% fetal bovine serum (Invitrogen Life Technologies, Carlsbad, Calif.), 250 nM dexamethasone, and 10 nM bovine insulin (Sigma-Aldrich, St. Louis, Mo.). Cells were seeded into 96-well plates (Falcon-Primaria #353872, BD Biosciences, Bedford, Mass.) at a density of approximately 4,000-6,000 cells/well for use in oligomeric compound transfection experiments.
When cells reached 65-75% confluency, they were treated with oligonucleotide. Oligonucleotide was mixed with LIPOFECTIN™ Invitrogen Life Technologies, Carlsbad, Calif.) in Opti-MEM™-1 reduced serum medium (Invitrogen Life Technologies, Carlsbad, Calif.) to achieve the desired concentration of oligonucleotide and a LIPOFECTIN™ concentration of 2.5 or 3 μg/mL per 100 nM oligonucleotide. This transfection mixture was incubated at room temperature for approximately 0.5 hours. For cells grown in 96-well plates, wells were washed once with 100 μL OPTI-MEM™-1 and then treated with 130 μL of the transfection mixture. Cells grown in 24-well plates or other standard tissue culture plates are treated similarly, using appropriate volumes of medium and oligonucleotide. Cells are treated and data are obtained in duplicate or triplicate. After approximately 4-7 hours of treatment at 37° C., the medium containing the transfection mixture was replaced with fresh culture medium. Cells were harvested 16-24 hours after oligonucleotide treatment.
(§2) Quantitation of glucose 6-phosphatase translocase mRNA levels was accomplished by real-time quantitative PCR using the ABI PRISM™ 7600, 7700, or 7900 Sequence Detection System (PE-Applied Biosystems, Foster City, Calif.) according to manufacturer's instructions.
(§3) Prior to quantitative PCR analysis, primer-probe sets specific to the target gene being measured were evaluated for their ability to be “multiplexed” with a GAPDH amplification reaction. After isolation the RNA is subjected to sequential reverse transcriptase (RT) reaction and real-time PCR, both of which are performed in the same well. RT and PCR reagents were obtained from Invitrogen Life Technologies (Carlsbad, Calif.). […] The RT reaction was carried out by incubation for 30 minutes at 48° C. Following a 10 minute incubation at 95° C. to activate the PLATINUM® Taq, 40 cycles of a two-step PCR protocol were carried out: 95° C. for 15 seconds (denaturation) followed by 60° C. for 1.5 minutes (annealing/extension).
(§4) Gene target quantities obtained by RT, real-time PCR were normalized using either the expression level of GAPDH, a gene whose expression is constant, or by quantifying total RNA using RiboGreen™ (Molecular Probes, Inc. Eugene, Oreg.). GAPDH expression was quantified by RT, real-time PCR, by being run simultaneously with the target, multiplexing, or separately. Total RNA was quantified using RiboGreen™ RNA quantification reagent (Molecular Probes, Inc. Eugene, Oreg.).
A series of oligomeric compounds was designed to target different regions of mouse glucose-6-phosphatase translocase, using published sequences cited in Table 1. All compounds in Table 22 are chimeric oligonucleotides (“gapmers”) 20 nucleotides in length, composed of a central “gap” region consisting of 10 2′-deoxynucleotides, which is flanked on both sides (5′ and 3′) by five-nucleotide “wings”. The wings are composed of 2′-O-(2-methoxyethyl) nucleotides, also known as 2′-MOE nucleotides. The internucleoside (backbone) linkages are phosphorothioate throughout the oligonucleotide. All cytidine residues are 5-methylcytidines. The compounds were analyzed for their effect on gene target mRNA levels by quantitative real-time PCR as described in other examples herein, using the following primer-probe set designed to hybridize to mouse glucose-6-phosphatase translocase: • forward primer: […]
(In general: In qPCR the cycle at which signal appears reflects the starting amount.)
Take “145697 (eT*eG*eG*e[5mC]*eT*dA*dT*dG*dA*d[5mC]*dT*d[5mC]*d[5mC]*dA*dA*eA*e[5mC]*eA*eA*eG; antisense) [compound 145697]”: the “% Inhib of mouse glucose-6-phosphatase translocase mRNA levels” value is on record as 45%. On the same count and under the same terms, the result for “145658 (antisense eT*eG*eG*eT*e[5mC]*dT*dG*dA*d[5mC]*dA*dG*dA*dA*d[5mC]*d[5mC]*e[5mC]*e[5mC]*eG*e[5mC]*eT) [compound 145658]” reads 36%; that for “145676 (antisense GAGTCCAACATCAGCAGGTTCA; 2'-MOE gapmer, further chemistry not given here) [compound 145676]”, 51%.

On to “145653 (antisense eT*eT*eG*eG*eG*d[5mC]*dT*dG*d[5mC]*d[5mC]*dA*dT*dG*dG*dT*eA*eG*eA*eA*eA) [compound 145653]”, for which the “% Inhib of mouse glucose-6-phosphatase translocase mRNA levels” value is 42%. For the substance “145654 (antisense eA*eG*eT*eG*e[5mC]*dG*dA*dT*dA*dG*dT*dA*dG*d[5mC]*d[5mC]*eG*eT*eA*eG*e[5mC]) [compound 145654]”, the “% Inhib of mouse glucose-6-phosphatase translocase mRNA levels” value is 47%. Still for that read-out and setting: the figure for “145704 (eG*e[5mC]*eT*eG*eG*d[5mC]*dT*d[5mC]*d[5mC]*dA*d[5mC]*dA*dA*dA*d[5mC]*e[5mC]*eA*e[5mC]*eT*eT; antisense) [compound 145704]” is 54%.

For “145650 (antisense eA*eA*eG*e[5mC]*eT*dG*dG*d[5mC]*d[5mC]*d[5mC]*dT*dG*d[5mC]*dT*dG*eG*e[5mC]*e[5mC]*e[5mC]*eA) [compound 145650]”, the “% Inhib of mouse glucose-6-phosphatase translocase mRNA levels” value came out at 54%.

Turning to “145661 (antisense eA*e[5mC]*e[5mC]*eA*eA*dG*dG*dA*dG*d[5mC]*dA*dG*d[5mC]*dA*dA*eA*eG*eG*e[5mC]*eT) [compound 145661]”, the “% Inhib of mouse glucose-6-phosphatase translocase mRNA levels” value was 25%. The same measure, in the same setting: the figure for “145688 (antisense eA*e[5mC]*eT*eG*e[5mC]*d[5mC]*d[5mC]*dT*d[5mC]*dT*d[5mC]*dT*d[5mC]*d[5mC]*dT*eG*eG*eA*eT*eA) [compound 145688]” is 25%. For “145649 (antisense eG*e[5mC]*e[5mC]*e[5mC]*eA*d[5mC]*dT*d[5mC]*d[5mC]*dA*dG*dT*dA*d[5mC]*dT*eT*e[5mC]*eT*eG*eA) [compound 145649]”, the “% Inhib of mouse glucose-6-phosphatase translocase mRNA levels” value stood at 61%. On the same count and under the same terms, the figure for “145723 (eG*e[5mC]*e[5mC]*eG*e[5mC]*d[5mC]*dT*dT*d[5mC]*dT*dG*dG*dA*d[5mC]*dA*eA*eT*e[5mC]*eA*eT; antisense) [compound 145723]” is 0%; for “145715 (eA*eG*eG*eA*eG*dT*dT*dG*d[5mC]*d[5mC]*dT*dG*dT*d[5mC]*dT*eG*e[5mC]*e[5mC]*eA*eG; antisense) [compound 145715]” it is 50%. Take “145680 (antisense e[5mC]*eT*e[5mC]*e[5mC]*eT*dT*d[5mC]*dA*dA*dG*dG*dA*dG*d[5mC]*d[5mC]*e[5mC]*eT*eT*e[5mC]*eT) [compound 145680]”: the “% Inhib of mouse glucose-6-phosphatase translocase mRNA levels” value was 0%. As for “145707 (eT*eG*eG*eA*eT*dA*d[5mC]*dT*d[5mC]*dG*dG*d[5mC]*d[5mC]*d[5mC]*dA*eT*e[5mC]*eT*eT*eG; antisense) [compound 145707]”, the “% Inhib of mouse glucose-6-phosphatase translocase mRNA levels” value is recorded as 56%. On the same count and under the same terms, the figure for “145677 (antisense e[5mC]*eT*eT*e[5mC]*eT*dT*dG*d[5mC]*d[5mC]*d[5mC]*dT*d[5mC]*dA*dG*dA*eG*eG*eG*e[5mC]*eA) [compound 145677]” is 9%. Regarding “145703 (eA*e[5mC]*e[5mC]*eA*e[5mC]*dT*dT*d[5mC]*dT*dG*d[5mC]*d[5mC]*dA*d[5mC]*d[5mC]*e[5mC]*eA*eG*eA*eA; antisense) [compound 145703]”, the “% Inhib of mouse glucose-6-phosphatase translocase mRNA levels” value was 42%.

For the next series the test system is unchanged. Description: Antisense inhibition of mouse glucose-6-phosphatase translocase mRNA in primary mouse hepatocytes, 50 nM (Table 5). It counts as cell-based. As to conditions: 50 nM oligonucleotide, mRNA by real-time PCR, normalized with RIBOGREEN
As to the method:
as §1, §2, §3, §4
A series of oligomeric compounds was designed to target different regions of mouse glucose-6-phosphatase translocase, using published sequences cited in Table 1. All compounds in Table 5 are chimeric oligonucleotides (“gapmers”) 20 nucleotides in length, composed of a central “gap” region consisting of 10 2′-deoxynucleotides, which is flanked on both sides (5′ and 3′) by five-nucleotide “wings”. The wings are composed of 2′-O-(2-methoxyethyl) nucleotides, also known as 2′-MOE nucleotides. The internucleoside (backbone) linkages are phosphorothioate throughout the oligonucleotide. All cytidine residues are 5-methylcytidines. The compounds were analyzed for their effect on gene target mRNA levels by quantitative real-time PCR as described in other examples herein, using the following primer-probe set designed to hybridize to mouse glucose-6-phosphatase translocase: • forward primer: […] (SEQ ID NO: 66) • reverse primer: CCATCCCAGCCATCATGAG (SEQ ID NO: 67) and the PCR probe was: FAM-[…]-TAMRA (SEQ ID NO: 68) where FAM is the fluorescent reporter dye and TAMRA is the quencher dye. Mouse target gene quantities were normalized by quantifying total RNA using RIBOGREEN™.
Data are from experiments in which primary mouse hepatocytes were treated with 50 nM of the antisense oligonucleotides of the present invention. A reduction in expression is expressed as percent inhibition in Table 5. If present, “N.D.” indicates “not determined”. The target regions to which these oligomeric compounds are inhibitory are herein referred to as “validated target segments.”
For the substance “CTGATGGCGTAGGCTGCCGA (e[5mC]*eT*eG*eA*eT*dG*dG*d[5mC]*dG*dT*dA*dG*dG*d[5mC]*dT*eG*e[5mC]*e[5mC]*eG*eA; antisense) [ISIS 148950]”, the “% Inhib” value was 0%. The same measure, in the same setting: the result for “AACCAGGATCCAGATCTTGG (eA*eA*e[5mC]*e[5mC]*eA*dG*dG*dA*dT*d[5mC]*d[5mC]*dA*dG*dA*dT*e[5mC]*eT*eT*eG*eG; antisense) [ISIS 148976]” reads 48%; that for “TATTGGCATCAATTTTGCCC (eT*eA*eT*eT*eG*dG*d[5mC]*dA*dT*d[5mC]*dA*dA*dT*dT*dT*eT*eG*e[5mC]*e[5mC]*e[5mC]; antisense) [ISIS 149002]”, 22%; that for “GGGACTGAGGTATTGGCATC (eG*eG*eG*eA*e[5mC]*dT*dG*dA*dG*dG*dT*dA*dT*dT*dG*eG*e[5mC]*eA*eT*e[5mC]; antisense) [ISIS 149003]”, 9%. The same measure, in the same setting: the figure for “CCGTGTCCTGCCAGTAAGGC (e[5mC]*e[5mC]*eG*eT*eG*dT*d[5mC]*d[5mC]*dT*dG*d[5mC]*d[5mC]*dA*dG*dT*eA*eA*eG*eG*e[5mC]; antisense) [ISIS 148986]” is 55%; for “ACAACTGTGCTGGCTCCACA (eA*e[5mC]*eA*eA*e[5mC]*dT*dG*dT*dG*d[5mC]*dT*dG*dG*d[5mC]*dT*e[5mC]*e[5mC]*eA*e[5mC]*eA; antisense) [ISIS 148982]” it is 69%.

In the case of “GAGCCCCAAATCGTCCTTGT (eG*eA*eG*e[5mC]*e[5mC]*d[5mC]*d[5mC]*dA*dA*dA*dT*d[5mC]*dG*dT*d[5mC]*e[5mC]*eT*eT*eG*eT; antisense) [ISIS 148947]”, the “% Inhib” value turned out to be 37%. Same read-out and setting: the result for “CCGTAGCCTTGGGCTGCCAT (e[5mC]*e[5mC]*eG*eT*eA*dG*d[5mC]*d[5mC]*dT*dT*dG*dG*dG*d[5mC]*dT*eG*e[5mC]*e[5mC]*eA*eT; antisense) [ISIS 148941]” reads 62%; that for “CTTTCCGTGTCCTGCCAGTA (e[5mC]*eT*eT*eT*e[5mC]*d[5mC]*dG*dT*dG*dT*d[5mC]*d[5mC]*dT*dG*d[5mC]*e[5mC]*eA*eG*eT*eA; antisense) [ISIS 148987]”, 45%.

Consider “GGCTGCTTGTGATGAGCCCC (eG*eG*e[5mC]*eT*eG*d[5mC]*dT*dT*dG*dT*dG*dA*dT*dG*dA*eG*e[5mC]*e[5mC]*e[5mC]*e[5mC]; antisense) [ISIS 148949]”, for which the “% Inhib” value is on record as 52%.

For the substance “AAACGTAAAGGTTCTGTGTT (eA*eA*eA*e[5mC]*eG*dT*dA*dA*dA*dG*dG*dT*dT*d[5mC]*dT*eG*eT*eG*eT*eT; antisense) [ISIS 148990]”, the “% Inhib” value amounted to 16%.
